Source: the NIST ThermoML archive (doi:10.1021/je500513b)

Assay: mn = molality of the nth substance listed, in mol/kg
Conditions: for surface tension liquid-gas: Pendant drop shape; for electrical conductivity: 100 kPa, Liquid, Mettler Toledo inLab 710

CCCCCCCCCCCC[N+](C)(C)CCC[N+](C)(C)CCCCCCCCCCCC.[Br-].[Br-] + O
Conditions	electrical conductivity, 298.15 K [S/m]	electrical conductivity, 303.15 K [S/m]	electrical conductivity, 308.15 K [S/m]	electrical conductivity, 313.15 K [S/m]	electrical conductivity, 318.15 K [S/m]	electrical conductivity, 323.15 K [S/m]	surface tension liquid-gas, 298.15 K [mN/m]
m1 = 0.0001	–	–	–	–	–	–	60.28
m1 = 0.0002	–	–	–	–	–	–	51.37
m1 = 0.0004	–	–	–	–	–	–	41.67
m1 = 0.00057	0.0117	0.0131	–	0.0152	0.0174	–	–
m1 = 0.00059	–	–	–	–	–	0.0191	–
m1 = 0.0006	–	–	–	–	–	–	36.01
m1 = 0.00061	0.0126	0.0139	–	0.0168	0.0186	–	–
m1 = 0.00063	–	–	–	–	–	0.0203	–
m1 = 0.00064	0.0132	0.0146	0.0159	0.0176	0.0199	–	–
m1 = 0.00067	0.0138	0.0152	0.0168	0.0186	0.0209	0.0218	–
m1 = 0.0007	0.0144	0.0159	0.0176	0.0197	0.0219	0.0229	33.17
m1 = 0.00074	0.0151	0.0168	0.0184	0.0207	0.0231	0.0241	–
m1 = 0.00077	0.0156	0.0172	0.0191	–	–	–	–
m1 = 0.00079	–	–	–	0.0217	0.0245	0.0256	–
m1 = 0.0008	0.0161	0.0178	0.0196	–	–	–	32.87
m1 = 0.00083	0.0165	0.0185	0.0203	0.0229	0.0253	0.0272	–
m1 = 0.00085	–	–	–	–	–	–	32.79
m1 = 0.00087	0.0168	0.0191	0.021	0.0237	0.0262	0.0282	–
m1 = 0.0009	–	–	–	–	–	–	32.84
m1 = 0.00091	0.0171	0.0195	0.0216	0.0245	0.0271	0.0293	–
m1 = 0.00095	0.0175	0.02	0.0223	0.0254	0.028	0.0305	–
m1 = 0.001	0.0179	0.0205	0.0228	0.0262	0.0289	0.0319	32.76
m1 = 0.00105	0.0183	0.0209	0.0234	0.027	0.0299	0.0334	–
m1 = 0.0011	–	–	–	–	–	–	32.75
m1 = 0.00111	0.0187	0.0212	0.024	0.0277	0.0308	0.0349	–
m1 = 0.00118	0.0191	0.0217	0.0244	0.0285	0.0318	0.036	–
m1 = 0.0012	–	–	–	–	–	–	32.81
m1 = 0.00125	0.0195	0.0221	0.025	0.0293	0.0327	0.0374	–
m1 = 0.00134	0.0199	0.0225	0.0257	0.0301	0.0335	0.0384	–
m1 = 0.00143	0.0203	0.0229	0.0264	0.031	0.0347	0.0394	–
m1 = 0.0015	–	–	–	–	–	–	32.59
m1 = 0.00154	0.0208	0.0235	0.027	0.0319	0.0357	0.0404	–
m1 = 0.0016	0.0211	0.0237	–	–	–	0.0413	–
m1 = 0.00163	–	–	0.0277	–	–	–	–
m1 = 0.00167	0.0214	0.0242	–	0.0327	0.037	0.042	–
m1 = 0.0017	–	–	0.028	–	–	–	–
m1 = 0.00174	0.0217	0.0247	–	0.0331	0.0376	0.0427	–
m1 = 0.00178	–	–	0.0285	–	–	–	–
m1 = 0.00182	0.0221	0.0251	–	0.0336	0.0383	0.0434	–
m1 = 0.00186	–	–	0.0291	–	–	–	–
m1 = 0.00191	0.0225	0.0256	–	0.0343	0.039	0.044	–
m1 = 0.002	0.023	0.0263	0.0301	0.0349	0.0399	0.0451	32.62

O [water] + CCCCCCCCCCCC[N+](C)(C)CCC[N+](C)(C)CCCCCCCCCCCC.[Br-].[Br-]
Conditions	surface tension liquid-gas [mN/m]
298.15 K, m2 = 0	71.98
